# Legend:
# Format in all cases: binding
# CC mismatched DNA [1] = test: Isothermal titration calorimetry with CC mismatched DNA; settings: 0.1 mM complex titrated by 0.75 mM DNA; 50 mM NaCl, 2 mM Tris, pH 7.5
# Description: ITC measures the heat absorbed or generated during a bi-molecular binding event. During ITC experiment of titrating known concentration of titrant (DNA molecules) to known quantity of titrate (Pt(II) complexes), Pt(II) complexes would bind onto the DNA molecules, generating incremental heat changes (in the unit of microcalories (μcal)). Through accurate measurement of the heat changes in each step of the titration and fitting the data by using a non-liner least square method, the best-fitted graph would yield the binding constant (K) of the bi-molecular interaction.
# To determine the binding constant of Pt(II) complexes with CC mismatched DNA, 0.1 mM of Pt(II) complex in an aqueous buffer solution (50 mM NaCl, 2 mM Tris, pH 7.5) was titrated by 0.75 mM of DNA. Heat released from each step of titration had been recorded.
# CC mismatched DNA [2] = test: Emission enhancement of complexes upon titration with CC mismatched DNA; settings: complex 5 μM, DNA 10 μM; for increase in emission intensity in the presence of CC mismatched DNA: aqueous buffer 50 mM NaCl, 2 mM Tris, pH 7.5; for ratio of emission enhancement by CC mismatched DNA to that by matched DNA (ΔIcc/ΔImat): aqueous buffer pH 7.5
# Protocol: (§1) FIGS. 1A and 1B are graphs showing the emission spectra of complex 5 (5 μM) in an aqueous buffer solution (50 mM NaCl, 2 mM Tris, pH 7.5) after binding to different concentrations of CC mismatched DNA (left) and well-matched DNA (right).
# (§2) FIG. 4 is a graph showing the emission enhancement of different complexes (5 μM) towards CC mismatched DNA and matched DNA (10 μM). FIG. 5 is a graph showing the difference in emission enhancement between CC mismatched DNA and matched DNA by different complexes.
# matched DNA [3] = test: Isothermal titration calorimetry with matched DNA; settings: 0.1 mM complex titrated by 0.75 mM DNA; 50 mM NaCl, 2 mM Tris, pH 7.5
# matched DNA [4] = test: Emission enhancement of complexes upon titration with well-matched DNA; settings: complex 5 μM, DNA 10 μM; aqueous buffer 50 mM NaCl, 2 mM Tris, pH 7.5
# Protocol: as §1, §2
# Upon addition of CC mismatch DNA, a growth of the emission band was observed, and a 27-fold increase in emission intensity was found when the concentration of CC mismatched DNA was twice as much as that of the concentration of complex 5 (FIGS. 1A and 1B). It is noteworthy that the emission enhancement of complex 5 towards CC mismatched DNA was around 7-fold more than that toward matched DNA (FIG. 2).
Structure (SMILES),increase in emission intensity in the presence of CC mismatched DNA (CC mismatched DNA [2]),ratio of emission enhancement by CC mismatched DNA to that by matched DNA (ΔIcc/ΔImat) (CC mismatched DNA [2]),increase in emission intensity in the presence of matched DNA (matched DNA [4]),other results
CN1C=CN(C)[CH]1[Pt]12[c]3ccccc3-c3cccc([n+]31)-c1cccc[n+]12 (centres unmarked) [Complex 1],–,–,–,difference in heat change between titration with CC mismatched DNA and matched DNA (ITC) (CC mismatched DNA [1]): no distinguishable difference in heat change
CCCCN1C=CN(Cc2ccccc2)[CH]1[Pt]12[c]3ccccc3-c3cccc([n+]31)-c1cccc[n+]12 (centres unmarked) [Complex 5],27 fold,–,–,binding constant (K) with CC mismatched DNA by ITC (CC mismatched DNA [1]): 1.18×10^4; heat change in the binding of matched DNA (ITC) (matched DNA [3]): no significant heat change
C1=CN(Cc2ccccc2)[CH]([Pt]23[c]4ccccc4-c4cccc([n+]42)-c2cccc[n+]23)N1Cc1ccccc1 (centres unmarked) [Complex 8],small emission enhancements,smaller ratios of emission enhancement by CC mismatched DNA to the enhancement by matched DNA than complex 5,small emission enhancements,–
OCCN1C=CN(Cc2ccccc2)[CH]1[Pt]12[c]3ccccc3-c3cccc([n+]31)-c1cccc[n+]12 (centres unmarked) [Complex 9],–,smaller ratios of emission enhancement by CC mismatched DNA to the enhancement by matched DNA than complex 5,strong emission enhancement,–
CCCCN1C=CN(Cc2ccc3ccccc3c2)[CH]1[Pt]12[c]3ccccc3-c3cccc([n+]31)-c1cccc[n+]12 (centres unmarked) [Complex 11],no emission enhancement,–,no emission enhancement,–
CCCCN1C=CN(Cc2ccccc2)[CH]1[Pt]12[c]3ccccc3-c3cc(-c4ccccc4)cc([n+]31)-c1cccc[n+]12 (centres unmarked) [Complex 16],no emission enhancement,–,no emission enhancement,–
C1=CN(CN2C=CN(Cc3ccccc3)[CH]2[Pt]23[c]4ccccc4-c4cccc([n+]42)-c2cccc[n+]23)[CH]([Pt]23[c]4ccccc4-c4cccc([n+]42)-c2cccc[n+]23)N1Cc1ccccc1 (centres unmarked) [Complex 21],–,largest ΔIcc/ΔImat value,–,–

# — US10378046B2, “Method of targeting mismatched DNA using d8 square planar metal complexes” (The University of Hong Kong, priority 2015, dated 2019)
